The nature of data set [1]: Dynamic light scattering of QD-peptide conjugates. The class given is physicochemical. The note with it: DLS; 5 peptides/QD; 50 nM QD, 0.1×PBS pH 7.4, 25° C. From the text: Dynamic Light Scattering (DLS) analysis was next undertaken to measure the QD-peptide conjugates hydrodynamic diameter (HD) and diffusion coefficients. Based on the values estimated above, assembly ratios of 5 peptides/QD were utilized during these measurements. The QD-(Arg9)1 conjugate's HD increases from the QD only value of 24.3±1 nm to ˜26.7±1.3 nm. HD values for the QD-(Arg9)2-8 conjugates are essentially the same within experimental error with an average value of 30.5±0.5 nm while the QD-(Arg9)16 increases to ˜33 nm. The diffusion coefficients follow the same trend but in an inverse manner from ˜17 to 13 μm^2/s. […] They support the notion that the peptides are attached via the His6 region to the QD surface and that the polyproline regions span through the PEG layer displaying the poly(Arg) motifs on the QD's surface through the surrounding PEG layer as intended in the synthetic design.
Dynamic light scattering (DLS) measurements were carried out using a ZetaSizer NanoSeries equipped with a HeNe laser source (λ=633 nm, Malvern Instruments Ltd, Worcestershire, UK) and analyzed using Dispersion Technology Software (DTS, Malvern Instruments Ltd). 50 nM concentration solutions of QDs were loaded into disposable cells, and data were collected at 25° C. All samples were prepared in 0.1×PBS buffer pH 7.4. For each sample, the autocorrelation function was the average of five runs of 10 s each and then repeated from three to six times. CONTIN analysis was used to determine the number versus hydrodynamic size profiles for the dispersions studied.

The subject of data set [2] is COS-1 cells. Description: Cellular uptake of QD-dendritic peptide bioconjugates (fluorescence/confocal imaging). The class given is cell-based, African green monkey. The note with it: 4 h incubation, 100 nM QD, 5 peptides/QD. As to the method: COS-1 cells were incubated for 4 h with 150 μL of a 100 nM solution of QDs assembled with the (Arg9)1-16 peptide series at ratio of 5/QD. This ratio was chosen since it represents a value where stochastic assembly events are minimized and correlates with ratios used in the DLS and SPR analysis. Cells were then incubated with the Transferrin Alexa647 endosomal marker for another hour prior to washing and processing which included counterstaining with the DAPI nuclear dye as described in the Methods section. FIGS. 4A through 4G present representative micrographs collected from these samples as projections of confocal stacks and side profiles of the cells. […] The bright yellow PL also observed in these images reflects colocalization of the green QDs with the red Alexa647 marker and confirms that the QDs are located in the endolysosomal system with a primary perinuclear localization as expected following endosomal vesicular uptake.
Kinetics of Poly(Arg)1-16-mediated QD uptake into cells were next evaluated. For this, 150 μL of 100 nM QDs assembled with a ratio of 5 peptides/QD were exposed to COS-1 cells for fixed time periods of 0.5, 1, 4, 8 and 24 h. […] Some delivery trends are visible from a comparison across these images. […] The amount and brightness of QD labeling in the endosomes directly correlates with the increase in the dendritic poly(Arg) display on the QD surface. Additionally, as the cellular exposure time increases, the amount of QD uptake increases proportionally as well. The measured PL intensity per cell from these representative images is plotted in FIG. 5B highlighting the general trends. Although some variability was noted (most likely due to the inherent noisy background found in such gross cellular studies), replicate samples reproduced the same generalized trends of increased poly(Arg)n dendritic branching and increased cellular exposure time leading to increased bioconjugate uptake and PL intensity. […]

The test system of data set [3] is COS-1 cells. Description: Dendritic peptide-mediated delivery of cargo-decorated QDs. Format: cell-based, African green monkey. An excerpt: Lastly, as proof of concept, tests were made of the ability of the dendritic peptides to facilitate QD delivery, when the QDs are decorated with additional “cargo.” For this, following initial attachment of the (Arg9)n peptides to the QDs, they were further assembled with one of three prototypical cargos, a dye-labeled peptide, a drug-labeled peptide and a fluorescent protein. FIG. 8B presents a series of representative images that highlight some of the results achieved using 520 nm emitting QDs functionalized with a zwitterionic compact ligand 4; this ligand was used as it still allows larger proteins access to the QD surface for (His)n-binding unlike PEG which can sterically preclude them. […] Analogous to the data shown above, peptides with higher (Arg9)n dendrimeric branching, use of higher ratios of peptide/QD, and longer delivery times each served to facilitate higher levels of QD-cargo conjugate uptake into the cells (data not shown).
CdSe/ZnS core/shell QDs with emission maxima centered at 550 nm were synthesized as described. These were rendered hydrophilic through cap exchange of the native hydrophobic ligands with polyethylene glycol-(average MW 750 Da) appended dihydrolipoic acid ligands terminating in methoxy groups (DHLA-PEG750-OMe, see FIG. 1B) as described. For cargo delivery experiments, 520 nm emitting QDs functionalized with a zwitterionic compact ligand 4 (CL4) were utilized.
Aliquots of African green monkey kidney fibroblast-like COS-1 cells (CRL-1650) from American Type Culture Collection (ATCC, Manassas, Va., USA) were cultured in Dulbecco's Modified Eagle's Medium (DMEM, ATCC) supplemented with 10% (v/v) heat-inactivated fetal bovine serum (ATCC) and 1% antibiotic/antimycotic at 37° C. in a humidified atmosphere containing 95% air/5% CO2. Aliquots were allowed to adhere to the culture flask and reach 80% confluency, usually within 3 to 4 days. The monolayer was harvested by washing once with PBS, once with calcium/magnesium-free PBS, and incubating the monolayer with trypsin until detachment from the culture flask (usually within 5 min). Cells were seeded at 1-2×10^4 cells/well in Lab-Tek 8-well chambered No. 1 borosilicate cover glass system (Nalge Nunc, Rochester N.Y., USA) that had been previously coated for at least 4 h with fibronectin (5 μg/mL, Life Technologies). Cells were allowed to adhere to the bottom of the wells by further culture overnight at 37° C. in 95% air/5% CO2 air. Following overnight culture, media was removed and washed with 100 μL of 25 mM HEPES supplemented with 1 mM sodium pyruvate. […]
For cargo delivery experiments, mCherry fluorescent protein was prepared as described in the literature. […] Cytotoxicity assays were determined using the Vybrant® MTT Cell Proliferation Assay Kit. […]

Where no end group is shown, it is not given here.

“[(RRRRRRRRRFG)-x-hex-P9G]2-K′WGH6 (peptide RRRRRRRRRFGPPPPPPPPPG; chain KWGHHHHHH) [(Arg9)2, generation 1 dendritic wedge peptide displaying two Arg9 motifs]”: the “HD (hydrodynamic diameter)” value in data set [1] is given as 30 ± 1.4 nm.

[RRRRRRRRRFG]4-x-K′K′WP9G2H6 [(Arg9)4]: the “HD (hydrodynamic diameter)” value in data set [1] is 30.7 ± 2.0 nm.

As to “[RRRRRRRRRFG]8-x-K′K′K′WP9G2H6 [(Arg9)8]”, the “HD (hydrodynamic diameter)” value in data set [1] was 30.9 ± 1.4 nm. In data set [2], the “QD uptake (QD PL in confocal micrographs)” value (shortened to “QD uptake”) is “most intense QD PL”. In data set [3] (low valencies, short delivery times (data not shown)), the “comparative performance in cargo delivery experiments” value is on record as “worked best”. For the same substance, in data set [3] (ratio 0.5 peptide/QD, 1 h exposure, cargo MW ~50 kDa, 520 nm CL4 QDs), the “delivery of QDs decorated with ~25 doxorubicin labeled peptides” value is “allowed delivery”. In data set [3] (ratio 1 peptide/QD, 1 h exposure, cargo MW ~850 kDa, 520 nm CL4 QDs), the “delivery of ~30 mCherry per QD” value was “allowed delivery”. Moreover, in data set [3] (ratio 1 peptide/QD, 2 h exposure, cargo MW ~100 kDa/QD, 520 nm CL4 QDs), the “delivery of QDs decorated with ~30 Cy5 labeled peptides” value is reported as “facilitated delivery”.

On to “[RRRRRRRRRFG]16-x-K′K′K′K′WP9G2H6 [(Arg9)16]”, for which the “HD (hydrodynamic diameter)” value in data set [1] is listed as 32.7 ± 4.9 nm. Moreover, the “QD uptake” value in data set [2] is “most intense QD PL”.

Turning to “[RRRRRRRRRFG]-x-hex-hex-WP9G2H6 (RRRRRRRRRFGWPPPPPPPPPGGHHHHHH; not fully specified (residue 11); also: oxime bond (x) between G11 and hexamine spacers) [(Arg9)1, functions as control]”, the “HD (hydrodynamic diameter)” value in data set [1] is given as 26.7 ± 1.3 nm. Also, in data set [2], the “QD uptake” value was “no appreciable QD uptake”.

The record behind these values is US10183080B2, “Use of single dendritic wedge cell penetrating peptides to facilitate cellular delivery of nanoparticles and nanoparticles carrying cargos” (The Government of the United States of America, as …, priority 2016, dated 2019).
